Reference: patent US9045524B2, “Selective caspase inhibitors and uses thereof” (NOVAGENESIS FOUNDATION, priority 2009, dated 2015)
pIC50: −log10 of the molar value. Where a name gives a salt, the structure may show the parent alone. Read-outs that look alike come from different tables or passages of the source. Square brackets hold non-standard residues; d marks the D form. Peptide text beside a SMILES is read from it. * marks the point of attachment. Phg = N[C@H](C(=O)O)c1ccccc1; Cbz = O=C(OCc1ccccc1)*; OtBu = CC(C)(C)O*

How the values were obtained:
[1] = biological target: Caspase-7 (Homo sapiens (Human), UniProt P55210); assay: Caspase-7 Inhibitor Drug Screening Kit, fluorometric (AFC liberation); assay type: biochemical; settings: 30-minute incubation at 37° C.; approximations of the average values; read-out: Caspase enzymatic activity, IC50 (uM) Caspase 7
Method: (§1) The level of inhibition of caspase-1, -3, -5, -7, -9 activity was determined by comparison of the relative fluorescence intensity in samples with or without the compound.

[2] = biological target: Caspase-5 (Homo sapiens (Human), UniProt P51878); assay: Caspase-5 Inhibitor Drug Screening Kit, fluorometric (AFC liberation); assay type: biochemical; settings: 30-minute incubation at 37° C.; approximations of the average values; read-out: Caspase enzymatic activity, IC50 (uM) Caspase 5
Method: as §1

[3] = biological target: Caspase-3 (Homo sapiens (Human), UniProt P42574); assay: Caspase-3 Inhibitor Drug Screening Kit, fluorometric (AFC liberation); assay type: biochemical; settings: for IC50: 30-minute incubation at 37° C., approximations of the average values, read-out: Caspase enzymatic activity, IC50 (uM) Caspase 3
Method: as §1

[4] = biological target: Caspase-9 (Homo sapiens (Human), UniProt P55211); assay: Caspase-9 Inhibitor Drug Screening Kit, fluorometric (AFC liberation); assay type: biochemical; settings: 30-minute incubation at 37° C.; approximations of the average values; read-out: Caspase enzymatic activity, IC50 (uM) Caspase 9
Method: as §1

[5] = biological target: Caspase-1 (Homo sapiens (Human), UniProt P29466); assay: Caspase-1 Inhibitor Drug Screening Kit, fluorometric (AFC liberation); assay type: biochemical; settings: 30-minute incubation at 37° C.; approximations of the average values; read-out: Caspase enzymatic activity, IC50 (uM) Caspase 1
Method: as §1

[6] = tested on: proteolytic cleavage of PARP (poly ADP-ribose polymerase) in Hela cells; assay: Inhibition of staurosporine-induced PARP cleavage in live Hela cells; assay type: cell-based; settings: for inhibition at 50 µM: Homo sapiens, HeLa
Method: To test the efficacy of caspase-3 inhibitors at the cellular level, the ability of selected compounds to inhibit the proteolytic cleavage of PARP (poly ADP-ribose polymerase) was evaluated in live Hela cells.
Briefly, in this assay Hela cells are seeded in 96 well plates and incubated for 4 hours with staurosporine, a well characterized inducer of apoptosis, alone or together with different concentrations of compound (50, 25, 10 and 3 uM). After formaldehyde-based fixation, the cells are stained with a fluorescein-labeled anti-cleaved PARP antibody (Cell signaling, Cat#: 9547) and counterstained with Hoechst33342 (Invitrogen, Cat#: H3570) to mark all nuclei. Fluorescence images are taken on a Cellomics™ microscope system (Thermo Scientific, Pittsburgh, USA) with the Hoechst stain in the blue channel and the cleaved PARP antibody stain in the green channel. The percentage of cleaved PARP positive cells is determined by calculating the ratio between nuclei with a cleaved PARP antibody staining above a certain threshold and all (Hoechst positive) nuclei. The efficacy of caspase-3 inhibition is determined by calculating the ratio between cleaved PARP positive cells after staurosporine incubation together with compounds and staurosporine incubation without compounds.

[7] = tested on: Glo3/7; assay: Glo3/7 assay; assay type: biochemical
[8] = 4 h, read-out: % inhibition of PARP cleavage at 50 uM compound, Hela cells, staurosporine 4 hours, 50 uM compound
[9] = Hela cells, 50 uM, read-out: % of inhibition with compound relative to DEVDFMK

Caspase-1, sequence (P29466 120-404): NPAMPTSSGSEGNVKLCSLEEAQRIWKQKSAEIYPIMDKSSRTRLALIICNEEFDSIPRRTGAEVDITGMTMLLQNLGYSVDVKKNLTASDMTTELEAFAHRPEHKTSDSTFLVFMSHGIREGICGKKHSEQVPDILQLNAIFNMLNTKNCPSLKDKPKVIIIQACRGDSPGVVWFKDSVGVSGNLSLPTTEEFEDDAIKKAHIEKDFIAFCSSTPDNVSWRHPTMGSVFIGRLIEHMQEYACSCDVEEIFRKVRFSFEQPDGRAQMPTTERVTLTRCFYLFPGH
Caspase-9, sequence (P55211 whole entry): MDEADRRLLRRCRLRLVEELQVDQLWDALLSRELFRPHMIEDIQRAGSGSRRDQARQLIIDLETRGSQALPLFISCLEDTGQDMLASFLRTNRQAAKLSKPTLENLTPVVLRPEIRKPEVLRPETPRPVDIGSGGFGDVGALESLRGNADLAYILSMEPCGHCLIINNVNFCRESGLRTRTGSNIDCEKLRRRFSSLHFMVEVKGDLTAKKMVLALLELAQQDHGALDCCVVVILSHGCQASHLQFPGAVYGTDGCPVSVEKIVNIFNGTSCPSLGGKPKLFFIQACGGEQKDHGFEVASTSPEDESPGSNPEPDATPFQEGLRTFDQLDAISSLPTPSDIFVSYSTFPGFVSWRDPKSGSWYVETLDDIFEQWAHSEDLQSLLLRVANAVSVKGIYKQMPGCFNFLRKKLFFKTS
Caspase-5, sequence (P51878 137-434): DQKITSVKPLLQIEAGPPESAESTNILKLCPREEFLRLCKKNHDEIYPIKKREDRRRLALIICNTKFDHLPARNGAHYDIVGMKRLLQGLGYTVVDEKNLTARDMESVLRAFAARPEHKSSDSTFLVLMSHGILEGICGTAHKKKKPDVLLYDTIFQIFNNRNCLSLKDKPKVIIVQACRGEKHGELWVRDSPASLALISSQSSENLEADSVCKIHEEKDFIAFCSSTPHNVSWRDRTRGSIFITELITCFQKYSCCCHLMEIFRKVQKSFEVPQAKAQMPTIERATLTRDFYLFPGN
Caspase-7, sequence (P55210 whole entry): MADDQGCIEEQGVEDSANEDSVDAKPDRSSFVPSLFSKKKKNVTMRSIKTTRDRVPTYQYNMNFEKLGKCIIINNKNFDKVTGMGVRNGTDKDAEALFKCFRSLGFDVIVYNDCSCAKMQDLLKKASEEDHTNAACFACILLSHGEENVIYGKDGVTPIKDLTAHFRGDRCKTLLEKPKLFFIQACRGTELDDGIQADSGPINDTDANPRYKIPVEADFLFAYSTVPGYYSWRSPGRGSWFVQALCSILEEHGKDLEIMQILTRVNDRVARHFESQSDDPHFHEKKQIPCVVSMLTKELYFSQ
Caspase-3, sequence (P42574 29-277): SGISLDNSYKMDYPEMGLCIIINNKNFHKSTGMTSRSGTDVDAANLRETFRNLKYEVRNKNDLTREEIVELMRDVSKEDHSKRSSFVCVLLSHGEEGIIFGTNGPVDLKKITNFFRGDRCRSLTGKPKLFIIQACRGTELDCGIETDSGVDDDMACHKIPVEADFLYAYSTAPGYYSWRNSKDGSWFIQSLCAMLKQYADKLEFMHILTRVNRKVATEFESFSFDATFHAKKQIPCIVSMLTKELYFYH

| SMILES | IC50 [1] | IC50 [2] | activity against caspase-3 [3] | IC50 [3] | IC50 [4] | IC50 [5] | inhibition at 50 µM [6, 8] | inhibition at 50 µM [6, 9] | IC50 [7] | pIC50 ([3]; read-out: IC50 caspase-3) | effectivity in inhibiting PARP cleavage ([6]; Hela cells, staurosporine) |
| --- | --- | --- | --- | --- | --- | --- | --- | --- | --- | --- | --- |
| CS(=O)(=O)/C=C/[C@@H](N)CC(=O)O.Cc1ccc(S(=O)(=O)O)cc1 [Compound 93, AspVSmethyl] | > 3.33 µM | > 3.33 µM | devoid of any activity | > 10 µM | > 3.33 µM | > 3.33 µM | 15% | 25% | > 50 µM | – | – |
| CC(C)(C)OC(=O)C[C@H](N)/C=C/S(=O)(=O)c1ccccc1 [Compound 37, Asp-vinyl Phenyl Sulfone Salt Form] | > 3.33 µM | > 3.33 µM | – | > 2 µM | > 3.33 µM | > 3.33 µM | 20% | 35% | > 50 µM | – | – |
| CC(C)[C@H](NC(=O)[C@H](CCC(=O)O)NC(=O)[C@H](Cc1ccc(O)cc1)NC(=O)OCc1ccccc1)C(=O)N[C@H](/C=C/S(C)(=O)=O)CC(=O)O [Compound 82] | > 5 µM | > 3 µM | – | 0.3 µM | 1.6 µM | 0.5 µM | 15% | 15% | 3.7 µM | – | – |
| CC(C)[C@H](NC(=O)[C@H](Cc1ccc2ccccc2n1)NC(=O)[C@H](CC(=O)OC(C)(C)C)NC(=O)OCc1ccccc1)C(=O)N[C@H](/C=C/S(=O)(=O)N1CCOCC1)CC(=O)OC(C)(C)C [Compound 66, Z-Asp(β-tert-Butyl)-Ala(2′-quinolyl)-Val-Asp(β-tert-Butyl)morpholine Vinyl Sulfone] | > 3.33 µM | > 3.33 µM | – | 0.2 µM | > 3.33 µM | > 3.33 µM | – | 35% | 1.4 µM | – | – |
| CC(C)(C)OC(=O)C[C@H](N)/C=C/S(C)(=O)=O.Cc1ccc(S(=O)(=O)O)cc1 [Compound 33, Asp(β-tert-butyl)methyl Vinyl Sulfone Tosyl Salt] | > 3.33 µM | > 3.33 µM | devoid of any activity | > 10 µM | > 3.33 µM | > 3.33 µM | 30% | 50% | > 50 µM | – | – |
| CC(C)[C@H](NC(=O)C(Cc1ccc2ccccc2n1)NC(=O)[C@H](CC(=O)O)NC(=O)OCc1ccccc1)C(=O)N[C@H](/C=C/S(C)(=O)=O)CC(=O)O (stereo partly shown) [Compound 71, Z-Asp-(D,L Ala(2′-quinolyl))-Val-Aspmethyl Vinylsulfone] | 8.9 µM | > 10 µM | – | – | > 10 µM | > 10 µM | 20% | 35% | 0.3 µM | – | – |
| CC(C)[C@H](NC(=O)[C@H](Cc1ccccn1)NC(=O)[C@H](CC(=O)O)NC(=O)OCc1ccccc1)C(=O)N[C@H](/C=C/S(=O)(=O)c1ccccc1)CC(=O)O [Compound 85] | 1 µM | > 3.33 µM | – | 0.03 µM | > 3.33 µM | > 3.33 µM | – | 45% | 0.3 µM | – | – |
| CC(C)[C@H](NC(=O)[C@H](Cc1ccc(O)cc1)NC(=O)OCc1ccccc1)C(=O)N[C@@H](C)C(=O)N[C@H](/C=C/S(=O)(=O)c1ccccc1)CC(=O)O [Compound 96, z-Tyr-Val-Ala-AspVS phenyl] | > 10 µM | > 3.33 µM | – | > 10 µM | > 10 µM | 1.3 µM | 1% | 2% | > 50 µM | – | – |
| CC(C)[C@H](NC(=O)[C@@H](NC(=O)[C@H](CC(=O)O)NC(=O)OCc1ccccc1)c1ccccc1)C(=O)N[C@H](/C=C/S(=O)(=O)c1ccccc1)CC(=O)O [Compound 69, Z-Asp-Phg-Val-Asp-phenyl Vinylsulfone] | 1.8 µM | > 10 µM | – | 0.1 µM | > 3.33 µM | > 3.33 µM | 20% | 35% | 1.4 µM | – | – |
| Cc1ccc(S(=O)(=O)N[C@@H](Cc2ccc3ccccc3n2)C(=O)N[C@H](C(=O)N[C@H](/C=C(\Cl)S(C)(=O)=O)CC(=O)O)C(C)C)cc1 [Compound 50] | > 3.33 µM | > 3.33 µM | – | > 3.33 µM | > 3.33 µM | > 3.33 µM | 0% | 0% | 40 µM | – | – |
| CC(C)[C@H](NC(=O)[C@H](Cc1ccc2ccccc2n1)NC(=O)[C@H](CC(=O)O)NC(=O)OCc1ccccc1)C(=O)N[C@H](/C=C(\Cl)S(C)(=O)=O)CC(=O)O [Compound 48, Z-Asp-Ala(2′-quinolyl)-Val-Asp-achlorovinyl methylsulfone] | 0.4 µM | > 3.33 µM | – | 0.01 µM | 1.2 µM | > 3.33 µM | – | – | 0.1 µM | 7.52 to 8.10 | showing effectivity especially relative to DEVD-fmk |
| CC(C)[C@H](NC(=O)[C@H](Cc1ccc(O)cc1)NC(=O)[C@H](CC(=O)O)NC(=O)OCc1ccccc1)C(=O)N[C@H](/C=C/S(C)(=O)=O)CC(=O)O [Compound 76, Z-Asp-Tyr-Val-Aspmethyl vinyl sulfone] | 0.7 µM | > 3.33 µM | – | 0.03 µM | > 3.33 µM | > 3.33 µM | > 50% | – | 0.04 µM | – | – |
| CC(C)[C@H](NC(=O)[C@@H](NC(=O)[C@H](CC(=O)OC(C)(C)C)NC(=O)OCc1ccccc1)c1ccccc1)C(=O)O [Compound 16, Z-Asp(β-tert-butyl)-Phg-Val-OH] (Cbz-Asp(OtBu)-[Phg]-Val-OH) | > 3.33 µM | > 3.33 µM | devoid of any activity | > 2 µM | > 3.33 µM | > 3.33 µM | 13% | 23% | > 50 µM | – | – |
